Test results taken from patent publication US20230174468A1, “SULFATED PILLARARENES, METHODS OF MAKING SAME, AND USES THEREOF” (priority 2007, published 2023).
Where two headings read alike, the source gives them in different places.

Legend:
[1] = M2.cis complex, previous work; cited from earlier work
[2] = TA98, +S9, positive control compounds
[3] = TA98, −S9, positive control compounds
[4] = TA100, +S9, positive control compounds
[5] = TA100, −S9, positive control compounds
[6] = TA1535, +S9, positive control compounds
[7] = TA1535, −S9, positive control compounds
[8] = TA1537, +S9, positive control compounds
[9] = TA1537, −S9, positive control compounds

| Compound | number of positive wells (TA98; [2]) | significance of positive wells vs control (Fisher's exact test) (TA98; [2]) | number of positive wells (TA98; [3]) | significance of positive wells vs control (Fisher's exact test) (TA98; [3]) | number of positive wells (TA100; [4]) | significance of positive wells vs control (Fisher's exact test) (TA100; [4]) | number of positive wells (TA100; [5]) | significance of positive wells vs control (Fisher's exact test) (TA100; [5]) | number of positive wells (TA1535; [6]) | significance of positive wells vs control (Fisher's exact test) (TA1535; [6]) | number of positive wells (TA1535; [7]) | significance of positive wells vs control (Fisher's exact test) (TA1535; [7]) | number of positive wells (TA1537; [8]) | significance of positive wells vs control (Fisher's exact test) (TA1537; [8]) | number of positive wells (TA1537; [9]) | significance of positive wells vs control (Fisher's exact test) (TA1537; [9]) | Ka [1] |
| --- | --- | --- | --- | --- | --- | --- | --- | --- | --- | --- | --- | --- | --- | --- | --- | --- | --- |
| CN(N=O)C(=O)N[C@H]1C(O)O[C@H](CO)[C@@H](O)[C@@H]1O (mixture of isomers) [Streptozotocin] | 0/48 | − (p >0.05 (negative, −)) | 0/48 | − (p >0.05 (negative, −)) | 7/48 | − (p >0.05 (negative, −)) | 5/48 | + (0.01<p<0.05 (weak positive, +)) | 24/48 | +++ (p<0.001 (very strong positive, +++)) | 16/48 | +++ (p<0.001 (very strong positive, +++)) | 1/48 | − (p >0.05 (negative, −)) | 1/48 | − (p >0.05 (negative, −)) | – |
| Nc1ccc2cc3ccccc3cc2c1 [Host 2-AA, 2-aminoanthracene] | 13/48 | +++ (p<0.001 (very strong positive, +++)) | 0/48 | − (p >0.05 (negative, −)) | 11/48 | + (0.01<p<0.05 (weak positive, +)) | 0/48 | − (p >0.05 (negative, −)) | 9/48 | ++ (0.001<p <0.01 (strong positive, ++)) | 0/48 | − (p >0.05 (negative, −)) | 6/48 | + (0.01<p<0.05 (weak positive, +)) | 0/48 | − (p >0.05 (negative, −)) | – |
| Nc1c2ccccc2nc2ccccc12 [Host 9-AA, 9-aminoacridine] | 0/48 | − (p >0.05 (negative, −)) | 0/48 | − (p >0.05 (negative, −)) | 2/48 | − (p >0.05 (negative, −)) | 0/48 | − (p >0.05 (negative, −)) | 0/48 | − (p >0.05 (negative, −)) | 0/48 | − (p >0.05 (negative, −)) | 24/48 | +++ (p<0.001 (very strong positive, +++)) | 24/48 | +++ (p<0.001 (very strong positive, +++)) | – |
| C[C@]12N3Cc4c(c(OCCCS(=O)(=O)[O-])c5ccccc5c4OCCCS(=O)(=O)[O-])CN1C(=O)N1CN4C(=O)N5CN6C(=O)N7CN8C(=O)N9Cc%10c(c(OCCCS(=O)(=O)[O-])c%11ccccc%11c%10OCCCS(=O)(=O)[O-])CN%10C(=O)N(CN%11C(=O)N(CN%12C(=O)N(CN(C3=O)[C@]12C)[C@@H]4[C@H]%125)[C@@H]6[C@H]%117)[C@]8(C)[C@@]9%10C.[Na+].[Na+].[Na+].[Na+] [Host M2] | – | – | – | – | – | – | – | – | – | – | – | – | – | – | – | – | 4.8e+06 M⁻¹ |
| O=c1c(O)c(-c2ccc(O)c(O)c2)oc2cc(O)cc(O)c12 [Quercetin] | 10/48 | +++ (p<0.001 (very strong positive, +++)) | 5/48 | + (0.01<p<0.05 (weak positive, +)) | 5/48 | − (p >0.05 (negative, −)) | 0/48 | − (p >0.05 (negative, −)) | 0/48 | − (p >0.05 (negative, −)) | 1/48 | − (p >0.05 (negative, −)) | 5/48 | + (0.01<p<0.05 (weak positive, +)) | 1/48 | − (p >0.05 (negative, −)) | – |
